27 molecules from patent US9145415B2, “Nitrogen-containing heterocyclic compound or salt thereof” (FUJIFILM Corporation, priority 2012, dated 2015) can be followed below.

Structures are written as SMILES. Where two headings read alike, the source gives them in different places.

Assay [1] concerns the target T1, human FLT3 protein (FLT3 (WT)) (Homo sapiens, UniProt P36888).
T1 construct: human FLT3 protein (intracellular region, 564 to 993 aa); GST; purchased Carna Biosciences; host or cells: baculovirus expression system
T1 sequence (P36888 564-993): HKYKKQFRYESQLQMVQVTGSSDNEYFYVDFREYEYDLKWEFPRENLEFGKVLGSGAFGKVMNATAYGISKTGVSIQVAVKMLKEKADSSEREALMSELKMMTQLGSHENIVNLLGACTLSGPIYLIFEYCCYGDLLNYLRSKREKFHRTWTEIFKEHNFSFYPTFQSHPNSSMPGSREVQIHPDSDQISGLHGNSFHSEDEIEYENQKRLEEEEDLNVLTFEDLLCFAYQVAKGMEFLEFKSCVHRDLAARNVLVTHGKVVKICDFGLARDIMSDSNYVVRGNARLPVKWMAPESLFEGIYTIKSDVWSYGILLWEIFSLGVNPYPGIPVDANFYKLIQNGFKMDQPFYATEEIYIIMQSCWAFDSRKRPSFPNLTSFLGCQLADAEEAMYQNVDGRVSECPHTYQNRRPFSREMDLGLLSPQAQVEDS
Kind of assay: FLT3 inhibition test (FLT3 enzyme inhibition, time-resolved fluorescence of substrate peptide phosphorylation). The class given is biochemical. The following applies: GST-fused human FLT3 (564 to 993 aa), ATP 50 μM. The method, boiled down:
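Wild-type human FLT3 (1.2 μg) pre-incubated with compound 15 min at 25° C in 100 mM HEPES pH 7.5, 10 mM MgCl2, 25 mM NaCl, 1 mM DTT. Reaction started with substrate peptide and ATP (final 50 μM), run 30 min at 25° C; phosphorylation read by time-resolved fluorescence.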

For assay [2], the system named is Molm-13 cells. The assay is described as follows: Leukemia cell proliferation inhibition test (ATPlite), Molm-13. It is filed as cell-based. Particulars: Homo sapiens, MOLM-13, 72 h, Molm-13, 72 hours culture, ATPlite; GI50 per method; read-out: MOLM13 cell proliferation inhibition effect. The method in brief:
(§1)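 Proliferation inhibition is quantified from total cellular ATP, measured by luciferase luminescence, after cells grow with compound for 72 hours. The GI50 is the concentration giving half the signal of the 0.1% DMSO control, fitted to a sigmoid curve from duplicate points.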
On the technique in general: In ATP-based viability assays light output follows the ATP content of the culture.

The subject of assay [3] is MV4-11 cells. The assay is described as follows: Leukemia cell proliferation inhibition test (ATPlite), MV4-11. The class given is cell-based. Particulars: Homo sapiens, MV4-11, 72 h, MV4-11, 72 hours culture, ATPlite; GI50 per method; read-out: MV4-11 cell proliferation inhibition effect. The method, boiled down:
as §1

Setting [4] is: read-out: FLT3 (WT) enzyme inhibition activity.

For the molecule `CCCNc1nc(Nc2ccc(C(N)=O)cc2)ncc1C(=O)Nc1cccc(NC(=O)[C@H](C)N(C)C(=O)/C=C/CN(C(C)C)C(C)C)c1` [Compound 4-7], the IC50 in assay [1] (setting [4]), in assay [2] and in assay [3] was less than 10 nM each time.

Turning to `CCCNc1nc(Nc2ccc(C(N)=O)cc2)ncc1C(=O)Nc1cccc(NC(=O)[C@H](C)N(C)C(=O)/C=C/CN(CC)CC)c1` [Compound 4-8, (S,E)-2-((4-Carbamoylphenyl)amino)-N-(3-(2-(4-(diethylamino)-N-methyl-2-butenamido)propanamido)phenyl)-4-(propylamino)pyrimidine-5-carboxamide], the IC50 in assay [1] (setting [4]), in assay [2] and in assay [3] was less than 10 nM throughout.

Take `CCCNc1nc(Nc2ccc(C(N)=O)cc2)ncc1C(=O)Nc1cccc(NC(=O)[C@H](C)N(C)C(=O)/C=C/CN(C)CCO)c1` [Compound 4-9]: the IC50 in assay [1] (setting [4]), in assay [2] and in assay [3] was less than 10 nM throughout.

Turning to `CCCNc1nc(Nc2ccc(C(N)=O)cc2)ncc1C(=O)Nc1cccc(NC(=O)[C@H](C)N(C)C(=O)/C=C/CNCCF)c1` [Compound 4-10], the IC50 in assay [1] (FLT3 (WT) enzyme inhibition activity), in assay [2] and in assay [3] was less than 10 nM in each case.

In the case of `CCCNc1nc(Nc2ccc(C(N)=O)cc2)ncc1C(=O)Nc1cccc(NC(=O)[C@H](C)N(C)C(=O)/C=C/CNCC(F)(F)F)c1` [Compound 4-13], the IC50 in assay [1] (setting [4]) was less than 10 nM; in assay [2] it was 10 to 100 nM; in assay [3], 10 to 100 nM.

As for `CCCNc1nc(Nc2ccc(C(N)=O)cc2)ncc1C(=O)Nc1cccc(NC(=O)[C@H](C)N(C)C(=O)/C=C/C(C)N(C)C)c1` (stereo partly drawn) [Compound 4-14], the IC50 in assay [1] (setting [4]), in assay [2] and in assay [3] was less than 10 nM throughout.

In the case of `CCCNc1nc(Nc2ccc(C(N)=O)cc2)ncc1C(=O)Nc1cccc(NC(=O)[C@H](C)N(C)C(=O)/C=C/C(CC)N(C)C)c1` (stereo partly drawn) [Compound 4-15], the IC50 was less than 10 nM in assay [1] (setting [4]), 100 to 1000 nM in assay [2] and 10 to 100 nM in assay [3].

For the molecule `CCCNc1nc(Nc2ccc(C(N)=O)cc2)ncc1C(=O)NCCCNC(=O)[C@H](C)N(C)C(=O)/C=C/CN(C)C` [Compound 5-1, (S,E)-2-((4-carbamoylphenyl)amino)-N-(3-(2-(4-(dimethylamino)-N-methyl-2-butenamido)propaneamido)propyl)-4-(propylamino)pyrimidine-5-carboxamide], the IC50 in assay [1] (setting [4]), in assay [2] and in assay [3] was less than 10 nM in each case.

Consider `C=CC(=O)N(C)CC(=O)NCCCNC(=O)c1cnc(Nc2ccc(C(N)=O)cc2)nc1NCCC` [Compound 5-2], for which the IC50 was less than 10 nM in assay [1] (setting [4]), 10 to 100 nM in assay [2] and 10 to 100 nM in assay [3].

As to `C=CC(=O)N(C)[C@@H](C)C(=O)NCCCNC(=O)c1cnc(Nc2ccc(C(N)=O)cc2)nc1NCCC` [Compound 5-3], the IC50 in assay [1] (setting [4]) is less than 10 nM; in assay [2], 10 to 100 nM; in assay [3], 10 to 100 nM.

`CCCNc1nc(Nc2ccc(C(N)=O)cc2)ncc1C(=O)NCCCNC(=O)[C@H](C)NC(=O)/C=C/CN(C)C` [Compound 5-4]: the IC50 was less than 10 nM in assay [1] (setting [4]), 100 to 1000 nM in assay [2] and 100 to 1000 nM in assay [3].

Turning to `CCCNc1nc(Nc2ccc(C(N)=O)cc2)ncc1C(=O)NCCCNC(=O)CN(C)C(=O)/C=C/CN(C)C` [Compound 5-5], the results for the IC50 in assay [1] (setting [4]), in assay [2] and in assay [3] were less than 10 nM, 10 to 100 nM and 10 to 100 nM, respectively.

Take `CCCNc1nc(Nc2ccc(C#N)cc2)ncc1C(=O)Nc1cccc(NC(=O)[C@H](C)N(C)C(=O)/C=C/CN(C)C)c1` [Compound 6-1, (S,E)-2-((4-cyanophenyl)amino)-N-(3-(2-(4-(dimethylamino)-N-methyl-2-butenamido)propanamido)phenyl)-4-(propylamino)pyrimidine-5-carboxamide]: the results for the IC50 in assay [1] (setting [4]), in assay [2] and in assay [3] were less than 10 nM, 10 to 100 nM and less than 10 nM, respectively.

As to `C=CC(=O)NCC(=O)Nc1cccc(NC(=O)c2cnc(Nc3ccc(C#N)cc3)nc2NCCC)c1` [Compound 6-2, N-(3-(2-(acrylylamido)acetamido)phenyl)-2-((4-cyanophenyl)amino)-4-(propylamino)pyrimidine-5-carboxamide], the IC50 in assay [1] (setting [4]) lay within 10 to 100 nM; in assay [2] it was 100 to 1000 nM; in assay [3], 10 to 100 nM.

With `CCCNc1nc(Nc2cccc(C#N)c2)ncc1C(=O)Nc1cccc(NC(=O)[C@H](C)N(C)C(=O)/C=C/CN(C)C)c1` [Compound 6-3, (S,E)-2-((3-cyanophenyl)amino)-N-(3-(2-(4-(dimethylamino)-N-methyl-2-butenamido)propanamido)phenyl)-4-(propylamino)pyrimidine-5-carboxamide], the figures for the IC50 in assay [1] (setting [4]), in assay [2] and in assay [3] were less than 10 nM, 10 to 100 nM and 10 to 100 nM, respectively.

Take `CCCNc1nc(Nc2cccc(F)c2)ncc1C(=O)Nc1cccc(NC(=O)[C@H](C)N(C)C(=O)/C=C/CN(C)C)c1` [Compound 6-4, (S,E)-N-(3-(2-(4-(dimethylamino)-N-methyl-2-butenamido)propanamido)phenyl)-2-((3-fluorophenyl)amino)-4-(propylamino)pyrimidine-5-carboxamide]: the IC50 in assay [1] (setting [4]), in assay [2] and in assay [3] was less than 10 nM in each case.

Take `C=CC(=O)NCC(=O)NCCCNC(=O)c1cnc(Nc2ccc3cnccc3c2)nc1NCCC` [Compound 6-5]: the values for the IC50 in assay [1] (setting [4]), in assay [2] and in assay [3] were less than 10 nM, 10 to 100 nM and 10 to 100 nM, respectively.

Turning to `C=CC(=O)N(C)CC(=O)NCCCNC(=O)c1cnc(Nc2ccc3cnccc3c2)nc1NCCC` [Compound 6-6], the IC50 in assay [1] (setting [4]), in assay [2] and in assay [3] was less than 10 nM in each case.

With `C=CC(=O)NC(C)(C)C(=O)NCCCNC(=O)c1cnc(Nc2ccc3cnccc3c2)nc1NCCC` [Compound 6-7], the IC50 is less than 10 nM in assay [1] (setting [4]), 10 to 100 nM in assay [2] and 10 to 100 nM in assay [3].

Consider `CCCNc1nc(Nc2ccc3cnccc3c2)ncc1C(=O)NCCCNC(=O)[C@H](C)N(C)C(=O)/C=C/CN(C)C` [Compound 6-8], for which the IC50 in assay [1] (setting [4]), in assay [2] and in assay [3] was less than 10 nM throughout.

As to `CCCNc1nc(Nc2ccc3cnccc3c2)ncc1C(=O)Nc1cccc(NC(=O)[C@H](C)N(C)C(=O)/C=C/CN(C)C)c1` [Compound 6-9, (S,E)-N-(3-(2-(4-(Dimethylamino)-N-methyl-2-butenamido)propanamido)phenyl)-2-(isoquinolin-6-ylamino)-4-(propylamino)pyrimidine-5-carboxamide], the IC50 in assay [1] (setting [4]), in assay [2] and in assay [3] was less than 10 nM each time.

For the molecule `C=CC(=O)N(C)CC(=O)NCCCNC(=O)c1cnc(Nc2ccc3cnncc3c2)nc1NCCC` [Compound 6-10A, N-(3-(2-(N-methylacrylylamido)actamido)propyl)-2-((phthalazin-6-yl)amino)-4-(propylamino)pyrimidine-5-carboxamide], the IC50 in assay [1] (setting [4]) is less than 10 nM; in assay [2] it was 100 to 1000 nM; in assay [3], 10 to 100 nM.

Take `CCCNc1nc(Nc2ccc3nnccc3c2)ncc1C(=O)NCCCNC(=O)[C@H](C)N(C)C(=O)/C=C/CN(C)C` [Compound 6-10B]: the IC50 in assay [1] (setting [4]), in assay [2] and in assay [3] was less than 10 nM throughout.

Regarding `CCCNc1nc(Nc2ccc3nnccc3c2)ncc1C(=O)Nc1cccc(NC(=O)[C@H](C)N(C)C(=O)/C=C/CN(C)C)c1` [Compound 6-11, (S,E)-2-(Cinnolin-6-ylamino)-N-(3-(2-(4-(dimethylamino)-N-methyl-2-butenamido)propanamido)phenyl)-4-(propylamino)pyrimidine-5-carboxamide], the IC50 in assay [1] (setting [4]), in assay [2] and in assay [3] was less than 10 nM throughout.

On to `C=CC(=O)N(C)CC(=O)NCCCNC(=O)c1cnc(NC(=O)Nc2ccncc2)nc1NCCC` [Compound 6-12], for which the IC50 in assay [1] (setting [4]) was less than 10 nM; in assay [2], 100 to 1000 nM; in assay [3] it was 10 to 100 nM.

As for `CCCNc1nc(NC(=O)Nc2ccncc2)ncc1C(=O)NCCCNC(=O)CN(C)C(=O)/C=C/CN(C)C` [Compound 6-13], the values for the IC50 in assay [1] (setting [4]), in assay [2] and in assay [3] were less than 10 nM, 100 to 1000 nM and 100 to 1000 nM, respectively.

With `CCCNc1nc(NC(=O)Nc2ccncc2)ncc1C(=O)Nc1cccc(NC(=O)[C@H](C)N(C)C(=O)/C=C/CN(C)C)c1` [Compound 6-14], the IC50 in assay [1] (setting [4]) was less than 10 nM; in assay [2], 10 to 100 nM; in assay [3] it was less than 10 nM.
